Reference: PubChem BioAssay AID1645863 (Buhrlage Lab, Dana-Farber Cancer Institute and Novartis …, 2021)
Active and inactive are the calls of the source. The rule behind the calls is not given here.

Biological target: Ubiquitin carboxyl-terminal hydrolase 10 (Homo sapiens) (UniProt Q14694)
Assay: primary hit verification, biochemical, ubiquitin-specific protease 10 deubiquitylase inhibitors, concentration-effect titration (AID 1645863);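 note: potency values describe inhibition of USP10 cleavage of a fluorogenic ubiquitin substrate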
Conditions: USP10 deubiquitinase enzymatic assay

Chain of Ubiquitin carboxyl-terminal hydrolase 10 (Homo sapiens) (Q14694 whole entry, looked up): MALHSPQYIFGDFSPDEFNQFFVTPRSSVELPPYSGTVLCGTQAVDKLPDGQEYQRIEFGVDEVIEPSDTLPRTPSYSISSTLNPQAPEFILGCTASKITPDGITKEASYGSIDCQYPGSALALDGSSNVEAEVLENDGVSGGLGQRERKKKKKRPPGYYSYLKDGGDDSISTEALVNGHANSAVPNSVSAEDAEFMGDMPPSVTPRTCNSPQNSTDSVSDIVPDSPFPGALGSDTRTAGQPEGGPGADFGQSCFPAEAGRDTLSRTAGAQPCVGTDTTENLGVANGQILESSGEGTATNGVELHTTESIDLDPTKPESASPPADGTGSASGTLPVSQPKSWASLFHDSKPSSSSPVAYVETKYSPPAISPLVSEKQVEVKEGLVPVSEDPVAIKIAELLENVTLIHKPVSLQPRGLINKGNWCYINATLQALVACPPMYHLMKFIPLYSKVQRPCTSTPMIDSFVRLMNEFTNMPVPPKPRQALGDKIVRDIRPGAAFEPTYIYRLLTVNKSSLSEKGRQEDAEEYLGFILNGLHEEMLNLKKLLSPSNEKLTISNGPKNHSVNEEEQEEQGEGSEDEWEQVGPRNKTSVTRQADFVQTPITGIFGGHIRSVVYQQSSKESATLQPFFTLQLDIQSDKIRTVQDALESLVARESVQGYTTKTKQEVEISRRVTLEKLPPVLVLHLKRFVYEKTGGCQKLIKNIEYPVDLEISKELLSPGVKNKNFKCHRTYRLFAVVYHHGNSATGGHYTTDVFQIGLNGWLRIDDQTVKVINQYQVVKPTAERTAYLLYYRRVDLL

For `O=C(CCSc1nnnn1-c1ccccc1)Nc1cc(C(F)(F)F)ccc1Cl`, the IC50 was > 40 µM (inactive).

`O=C(Cn1c(=O)n(-c2ccc(Cl)cc2)c(=O)c2c3c(sc21)CCCC3)NCC1CCCO1` (stereo not given) was tested, and the IC50 was > 40 µM (inactive).

For `O=C(Cn1cc(C(=O)c2ccccc2)c(=O)c2cc(F)ccc21)Nc1ccc2c(c1)OCCO2`, the IC50 was > 40 µM (inactive).

`COc1ccc(/C=C/C(=O)Nc2nc3n(n2)C(c2ccccc2)CC(=O)N3)cc1` (stereo not given) was tested, and the IC50 was > 40 µM (inactive).

`N#Cc1ccccc1NC(=O)c1cc2c(s1)-c1ccccc1S(=O)(=O)C2` was tested, and the IC50 was 34.6 µM.

`O=C(c1ccccc1CN1CCOCC1)N1CCOCC2(C1)CN(c1ccc(F)cc1)C(=O)O2` (stereo not given) was tested, and the IC50 was > 40 µM (inactive).

With `O=c1c(O)c(-c2ccc(O)c(O)c2)oc2cc(O)cc(O)c12` the IC50 was 1.16 µM.

In the case of `CC(OC(=O)c1cc(S(=O)(=O)Nc2ccccc2F)ccc1Cl)C(=O)Nc1ccc([N+](=O)[O-])cc1C(F)(F)F` (stereo not given), the IC50 is reported as 16 µM.

`Cc1cc(C)c(NC(=O)CSc2nc3nccnc3c(=O)n2Cc2ccccc2Cl)c(C)c1` was tested, and the IC50 was > 40 µM (inactive).

`O=C(NC1CCCC1)C1CC(=O)N(c2cccc(-c3noc(-c4cccs4)n3)c2)C1` (stereo not given) was tested, and the IC50 was > 40 µM (inactive).

For `Cc1cccc(NC(=O)Nc2ccc(C)n(CC(=O)Nc3ccc(C)c(C)c3)c2=O)c1`, the IC50 was > 40 µM (inactive).

In the case of `COc1ccc(OC)c(NC(=O)c2cc(Cl)ccc2OC)c1`, the IC50 is reported as > 40 µM (inactive).

Work on `CC(C)=CCc1c(O)cc2c(c1C)OC(=O)c1c(C)c(Cl)c(O)c(CO)c1O2` yielded an IC50 of 15.9 µM.

`COc1ccc(Nc2nc3c(S(=O)(=O)c4ccc(C)cc4)nnn3c3ccsc23)c(OC)c1` gave an IC50 of 10.5 µM.

`Cc1ccc(-n2cc(-c3noc(C(=O)Nc4ccc(F)cc4C)n3)nn2)cc1` showed an IC50 of 10.1 µM.

With `N#Cc1cccnc1N1CCN(C(=O)Nc2cccc3ccccc23)CC1` the IC50 was > 40 µM (inactive).

With `Cc1cccc2nc(CSc3nc4ccc([N+](=O)[O-])cc4[nH]3)cn12` the IC50 was 19.8 µM.

In the case of `Brc1ccc(Nc2nc(-c3ccccn3)nc3ccccc23)cc1`, the IC50 is reported as 21 µM.

With `Cc1ccc(S(=O)(=O)Nc2cccc(Cl)c2)cc1NC(=O)CCC(=O)c1ccc(Cl)cc1` the IC50 was > 40 µM (inactive).

For `Cc1c(OCC(=O)NCc2ccccc2Cl)ccc2c3c(c(=O)oc12)CCC3`, the IC50 was > 40 µM (inactive).

`CC1Oc2cc3c(-c4c(O)cc(O)c5c(O)c6c(cc45)OC(C)C(C)C6=O)c(O)cc(O)c3c(O)c2C(=O)C1C` (stereo not given) was tested, and the IC50 was > 40 µM (inactive).

`COc1ccc(-c2nc(-c3nnn(Cc4ccc(F)cc4)c3C)no2)c(OC)c1` was tested, and the IC50 was > 40 µM (inactive).

In the case of `COc1ccc(-c2noc(CC(=O)Nc3cccc(OC)c3)n2)cc1`, the IC50 is reported as > 40 µM (inactive).

Compound `COc1ccc(Cl)cc1NC(=O)Cn1c(=O)n(CCCCC(=O)NCCc2ccccc2)c(=O)c2ccccc21` has an IC50 of 13.4 µM.

In the case of `Cc1ncc(-c2ccc3c(c2)OCO3)c(-c2nccs2)n1`, the IC50 is reported as > 40 µM (inactive).

In the case of `O=c1cc(-c2ccc(O)c(O)c2)oc2cc(O[C@@H]3O[C@H](CO)[C@@H](O)[C@H](O)[C@H]3O)cc(O)c12`, the IC50 is reported as 1.75 µM.

For `COc1ccccc1CN1CCC(c2cc(=O)[nH]c(-c3cccnc3)n2)CC1`, the IC50 was > 40 µM (inactive).

For `O=C(CCc1nnc2n(Cc3ccccc3Cl)c(=O)c3ccccc3n12)NCc1ccccc1`, the IC50 was > 40 µM (inactive).

In the case of `Cc1cc(N2CCOCC2)nc(N2CCN(C(=O)C(C)Oc3ccccc3)CC2)n1` (stereo not given), the IC50 is reported as > 40 µM (inactive).

In the case of `CSC1SCC2C(=O)N(C)C(C(C)C(C)C)C(=O)OCC(NC(=O)c3cnc4ccccc4n3)C(=O)NC(C)C(=O)N(C)C1C(=O)N(C)C(C(C)C(C)C)C(=O)OCC(NC(=O)c1cnc3ccccc3n1)C(=O)NC(C)C(=O)N2C` (stereo not given), the IC50 is reported as 19.3 µM.

For `O=C(Cn1c(COc2ccccc2)nc2ccccc21)Nc1cc(Cl)ccc1Cl`, the IC50 was > 40 µM (inactive).

For `COc1ccc(C(=O)Nc2ccccc2C(=O)NC(Cc2ccc(O)cc2)C(=O)NNC(=O)c2ccccc2Cl)cc1` (stereo not given), the IC50 was > 40 µM (inactive).

With `CN1c2ccccc2C(=O)NC12CCN(C(=O)NCc1ccccc1)CC2` the IC50 was > 40 µM (inactive).

`Cc1cc(=O)[nH]c(SCC(=O)c2cc(C)n(CCC3=CCCCC3)c2C)c1C#N` was tested, and the IC50 was > 40 µM (inactive).

With `CNC(=O)c1cc2nc(N(C)C)n(-c3ccc(F)cc3)c2s1` the IC50 was > 40 µM (inactive).
